Results on nine compounds are retold here after patent US5432179A, “Piperazine derivatives and pharmaceuticals containing the same” (Zeria Pharmaceutical Co., Ltd., priority 1991, dated 1995).

Experiment [1] has as its system passive cutaneous anaphylaxis (PCA). The experiment in a line: Antiallergic effects: passive cutaneous anaphylaxis (PCA), inhibition of leaked color amount. Particulars: rat PCA; oral, 10 mg/4 ml/kg one hour before the administration of antigen. It is filed as in vivo, male SD rat. The method, then:
The back of a male SD rat (150-250 g in weight) was shaved in advance. Physiological saline and 0.1 ml of anti DNP-AS (Dinitrophenyl conjugated Ascaris) IgE serum which had been diluted to a suitable concentration with physiological saline were intradermally injected there. Fourty-eight hours after sensitization, the animals were challenged with 1 ml of 0.5% Evans blue physiological saline containing 2.5 mg/ml of DNP-BSA (dinitrophenyl conjugated bovine serum albumin) via the tail vein. Thirty minutes later, they were sacrificed under exsanguination and the dorsal skin was removed and the exuded dye was measured according to the method proposed by Harada et al. [Allergy, 15, 1-7(1966)]. The leaked color amount caused by the passive cutaneous anaphylaxis (PCA) was determined by subtracting the leaked color amount of the site to which physiological saline was administered from that of the PCA site. Each test compound was suspended in 5% gum arabic or 0.5% methylcellulose and the-resulting suspension was orally administered at the rate of 10 mg/4 ml/kg one hour before the administration of antigen. The efficacy of the test compound was evaluated by an ihibition rate (antiallergic effects) of the leaked color amount.

Experiment [2] has as its system contraction reaction of the isolated ileum caused by histamine. As to the kind of experiment: Antihistamic effects: inhibition of histamine-induced contraction of isolated guinea pig ileum (Magnus bath). Particulars: Cavia porcellus, histamine 3×10^-7 mole, test compound for 3 minutes before histamine, 30° C., read-out: antihistamic action (50% inhibition concentration: IC50 value). Format: cell-based, Hartley male guinea pig. As for the experimental part: From a Hartley male guinea pig (300-600 g in weight), the ileum was isolated. The ileum was attached to a holder under a vesting tension of 0.5 g in a Magnus bath (30° C., under aeration) filled with 10 ml of the Tyrode solution. As a contraction reaction of the isolated ileum caused by histamine (3×10^-7 mole), an isometrical change in muscular tension was measured. The ileum was treated with the test compound for 3 minutes before the addition of histamine to study its effects and then its antihistamic action (50% inhibition concentration: IC50 value) was determined.
Incidentally, the IC50 value of Cetirizine (the compound disclosed in Japanese Patent Laid-Open No. 149282/1982) was determined as a control. Its IC value was 2.40 μM.

Take `O=C(Nc1nnn[nH]1)c1ccccc1OCCN1CCN(C(c2ccccc2)c2ccc(Cl)cc2)CC1` (stereo not drawn) [Example 41, 2-[2-[4-[(4-Chlorophenyl)phenylmethyl]-1-piperazinyl]ethoxy]-N-1H-tetrazol-5-yl-benzamide]: the “Antiallergic effects (inhibition rate of the leaked color amount)” value in experiment [1] amounted to 52.3%.
The same measure, in the same setting: the same measure for `O=C(Nc1nnn[nH]1)c1ccccc1OCCCN1CCN(C(c2ccccc2)c2ccc(Cl)cc2)CC1` (stereo not drawn) [Example 45, 2-[3-[4-[(4-Chlorophenyl)phenylmethyl]-1-piperazinyl]propoxy]-N-1H-tetrazol-5-yl-benzamide]: 72.4%; for `O=C(O)c1ccccc1OCCN1CCN(C(c2ccccc2)c2ccc(Cl)cc2)CC1` (stereo not drawn) [Example 5, 2-[2-[4-[(4-Chlorophenyl)phenylmethyl]-1-piperazinyl]ethoxy]benzoic acid]: 86.4%; for `O=C(O)c1ccccc1OCCN1CCN(C(c2ccccc2)c2ccccc2)CC1` [Example 9, 2-[2-[4-(Diphenylmethyl]-1-piperazinyl]ethoxy]-benzoic acid]: 61.9%.
For the compound `O=C(COCCN1CCN(C(c2ccccc2)c2ccc(Cl)cc2)CC1)Nc1nnn[nH]1` (stereo not drawn) [Example 50, 2-[2-[4-[(4-Chlorophenyl)phenylmethyl]-1-piperazinyl]ethoxy]-N-1H-tetrazol-5-yl-acetamide], the “Antiallergic effects (inhibition rate of the leaked color amount)” value in experiment [1] amounted to 60.4%.
For `O=C(Nc1nnn[nH]1)c1ccccc1OCCCN1CCN(C(c2ccccc2)c2ccccc2)CC1` [Example 46, 2-[3-[4-(Diphenylmethyl)-1-piperazinyl]propoxy]-N-1H-tetrazol-5-yl-benzamid], the “Antiallergic effects (inhibition rate of the leaked color amount)” value in experiment [1] is 59.8%.
Still for that read-out and setting: under “2-[2-[4-[(4-Chlorophenyl)phenylmethyl]-1-piperazinyl]ethoxy]-1-tetrazol-5-ylmethyl [Example 69]” stands 81.0%.
Turning to `O=C(O)COCCN1CCN(C(c2ccccc2)c2ccc(Cl)cc2)CC1` (stereo not drawn) [Cetirizine], the IC50 in experiment [2] was 2.4 µM.
As for `O=C(Nc1nnn[nH]1)c1ccccc1SCCN1CCN(C(c2ccccc2)c2ccc(Cl)cc2)CC1` (stereo not drawn) [Example 44, 2-[[2-[4-[(4-Chlorophenyl)phenylmethyl]-1-piperazinyl]ethyl]thio]-N-1H-tetrazol-5-yl-benzamide], the “Antiallergic effects (inhibition rate of the leaked color amount)” value in experiment [1] is recorded as 54.7%.
